Assays:
Escherichia coli [1] = assay: Antibacterial activity expressed as MIC value was determined on Escherichia coli A-20697 organism; assay type: functional
Staphylococcus aureus [2] = assay: Antibacterial activity expressed as MIC value was determined on Staphylococcus aureus A-9537 organism; assay type: functional
Escherichia coli [3] = assay: (§1) Antibacterial activity expressed as MIC value was determined on Escherichia coli A-22356 organism; assay type: functional
Escherichia coli [4] = assay: Antibacterial activity expressed as MIC value was determined on Escherichia coli A-21218 organism; assay type: functional
Staphylococcus aureus [5] = assay: Antibacterial activity expressed as MIC value was determined on Staphylococcus aureus A-22058 organism; assay type: functional
Staphylococcus aureus [6] = assay: Antibacterial activity expressed as MIC value was determined on Staphylococcus aureus A-20240 organism; assay type: functional
Pseudomonas aeruginosa [7] = assay: Antibacterial activity expressed as MIC value was determined on Pseudomonas aeruginosa A-21509 organism; assay type: functional
Staphylococcus aureus [8] = assay: Antibacterial activity expressed as MIC value was determined on Staphylococcus aureus A-22231 organism; assay type: functional
Escherichia coli [9] = assay: Antibacterial activity expressed as MIC value was determined on Escherichia coli A-20732 organism; assay type: functional
Proteus mirabilis = assay: Antibacterial activity expressed as MIC value was determined on Proteus mirabilis A-9900 organism; assay type: functional
Serratia marcescens = assay: Antibacterial activity expressed as MIC value was determined on Serratia marcescens A-20019 organism; assay type: functional
Pseudomonas aeruginosa [10] = assay: Antibacterial activity expressed as MIC value was determined on Pseudomonas aeruginosa A-20741 organism; assay type: functional
Providencia rettgeri [11] = assay: (§2) Antibacterial activity expressed as MIC value was determined on Proteus rettgeri A-9637 organism; assay type: functional
Staphylococcus aureus [12] = assay: Antibacterial activity expressed as MIC value was determined on Staphylococcus aureus A-22210 organism; assay type: functional
Pseudomonas aeruginosa [13] = assay: Antibacterial activity expressed as MIC value was determined on Pseudomonas aeruginosa A-20653 organism; assay type: functional
Pseudomonas aeruginosa [14] = assay: Antibacterial activity expressed as MIC value was determined on Pseudomonas aeruginosa A-20717 organism; assay type: functional
Pseudomonas aeruginosa [15] = assay: Antibacterial activity expressed as MIC value was determined on Pseudomonas aeruginosa A-9834A organism; assay type: functional
Escherichia coli [16] = assay: Antibacterial activity expressed as MIC value was determined on Escherichia coli A-20895 organism; assay type: functional
Enterobacter cloacae [17] = assay: Antibacterial activity expressed as MIC value was determined on Enterobacter cloacae A-9656 organism; assay type: functional
Providencia stuartii [18] = assay: Antibacterial activity expressed as MIC value was determined on Proteus stuartii A-21210 organism; assay type: functional
Escherichia coli [19] = assay: Antibacterial activity expressed as MIC value was determined on Escherichia coli A-20683 organism; assay type: functional
Pseudomonas aeruginosa [20] = assay: Antibacterial activity expressed as MIC value was determined on Pseudomonas aeruginosa A-21294 organism; assay type: functional
Enterobacter cloacae [21] = assay: Antibacterial activity expressed as MIC value was determined on Enterobacter cloacae A-21006 organism; assay type: functional
Enterobacter cloacae [22] = assay: Antibacterial activity expressed as MIC value was determined on Enterobacter cloacae A-20364 organism; assay type: functional
Escherichia coli [23] = assay: Antibacterial activity expressed as MIC value was determined on Escherichia coli A-9632 organism; assay type: functional
Pseudomonas aeruginosa [24] = assay: Antibacterial activity expressed as MIC value was determined on Pseudomonas aeruginosa A-20897 organism; assay type: functional
Pseudomonas aeruginosa [25] = assay: Antibacterial activity expressed as MIC value was determined on Pseudomonas aeruginosa A-21508 organism; assay type: functional
Providencia stuartii [26] = assay: Antibacterial activity expressed as MIC value was determined on Proteus stuartii A-20894 organism; assay type: functional
Escherichia coli [27] = assay: Antibacterial activity expressed as MIC value was determined on Escherichia coli A-20665 organism; assay type: functional
Staphylococcus aureus [28] = assay: Antibacterial activity expressed as MIC value was determined on Staphylococcus aureus A-21978 organism; assay type: functional
Enterobacter cloacae [29] = assay: Antibacterial activity expressed as MIC value was determined on Enterobacter cloacae A-21136 organism; assay type: functional
Pseudomonas aeruginosa [30] = assay: Antibacterial activity expressed as MIC value was determined on Pseudomonas aeruginosa A-20601 organism; assay type: functional
Klebsiella pneumoniae = assay: Antibacterial activity expressed as MIC value was determined on Klebsiella pneumonia A-20468 organism; assay type: functional
Pseudomonas aeruginosa [31] = assay: Antibacterial activity expressed as MIC value was determined on Pseudomonas aeruginosa A-22233 organism; assay type: functional
Escherichia coli [32] = assay: Antibacterial activity expressed as MIC value was determined on Escherichia coli A-22045 organism; assay type: functional
Providencia rettgeri [33] = assay: Antibacterial activity expressed as MIC value was determined on Proteus rettgeri A-21207 organism; assay type: functional
Escherichia coli [34] = assay: as §1; assay type: functional; remark: listed apart in the source
Providencia rettgeri [35] = assay: as §2; assay type: functional; remark: listed apart in the source
Staphylococcus aureus [36] = assay: Antibacterial activity expressed as MIC value was determined on Staphylococcus aureusA-22058 organism; assay type: functional, organism-based

| Compound | MIC (Escherichia coli [1]) | MIC (Staphylococcus aureus [2]) | MIC (Escherichia coli [4]) | MIC (Staphylococcus aureus [6]) | MIC (Pseudomonas aeruginosa [7]) | MIC (Staphylococcus aureus [8]) | MIC (Escherichia coli [9]) | MIC (Proteus mirabilis) | MIC (Serratia marcescens) | MIC (Pseudomonas aeruginosa [10]) | MIC (Staphylococcus aureus [12]) | MIC (Pseudomonas aeruginosa [13]) | MIC (Pseudomonas aeruginosa [14]) | MIC (Pseudomonas aeruginosa [15]) | MIC (Escherichia coli [16]) | MIC (Enterobacter cloacae [17]) | MIC (Providencia stuartii [18]) | MIC (Escherichia coli [19]) | MIC (Pseudomonas aeruginosa [20]) | MIC (Enterobacter cloacae [21]) | further results |
| --- | --- | --- | --- | --- | --- | --- | --- | --- | --- | --- | --- | --- | --- | --- | --- | --- | --- | --- | --- | --- | --- |
| CC1(C)S[C@@H]2[C@H](NC(=O)C(C(=O)O)c3ccccc3)C(=O)N2[C@H]1C(=O)O.NC[C@H]1O[C@H](O[C@H]2[C@H](O)[C@@H](O[C@H]3O[C@H](CO)[C@@H](O)[C@H](N)[C@H]3O)[C@H](N)C[C@@H]2N)[C@H](N)C[C@@H]1O | > 250 µg/mL | 63 µg/mL | > 250 µg/mL | > 250 µg/mL | > 250 µg/mL | 63 µg/mL | > 250 µg/mL | > 250 µg/mL | 250 µg/mL | > 250 µg/mL | > 250 µg/mL | 250 µg/mL | > 250 µg/mL | 250 µg/mL | > 250 µg/mL | > 250 µg/mL | > 250 µg/mL | > 250 µg/mL | > 250 µg/mL | > 250 µg/mL | MIC (Escherichia coli [3]): > 250 µg/mL; MIC (Staphylococcus aureus [5]): > 250 µg/mL; MIC (Providencia rettgeri [11]): 125 µg/mL; MIC (Enterobacter cloacae [22]): > 250 µg/mL; MIC (Escherichia coli [23]): > 250 µg/mL; MIC (Pseudomonas aeruginosa [24]): > 250 µg/mL; MIC (Pseudomonas aeruginosa [25]): 250 µg/mL; MIC (Providencia stuartii [26]): > 250 µg/mL; MIC (Escherichia coli [27]): > 250 µg/mL; MIC (Staphylococcus aureus [28]): > 250 µg/mL; MIC (Enterobacter cloacae [29]): > 250 µg/mL; MIC (Pseudomonas aeruginosa [30]): > 250 µg/mL; MIC (Klebsiella pneumoniae): > 250 µg/mL; MIC (Pseudomonas aeruginosa [31]): > 250 µg/mL; MIC (Escherichia coli [32]): > 250 µg/mL; MIC (Providencia rettgeri [33]): > 250 µg/mL |
| CC1(C)S[C@@H]2[C@H](NC(=O)C(C(=O)O)c3ccccc3)C(=O)N2[C@H]1C(=O)O.NC[C@H]1O[C@H](O[C@H]2[C@H](O)[C@@H](O[C@H]3O[C@H](CO)[C@@H](O)[C@H](N)[C@H]3O)[C@H](N)C[C@@H]2N)[C@H](O)[C@@H](O)[C@@H]1O | > 250 µg/mL | > 250 µg/mL | > 250 µg/mL | > 250 µg/mL | > 250 µg/mL | > 250 µg/mL | > 250 µg/mL | > 250 µg/mL | > 250 µg/mL | > 250 µg/mL | > 250 µg/mL | > 250 µg/mL | > 250 µg/mL | > 250 µg/mL | > 250 µg/mL | > 250 µg/mL | > 250 µg/mL | > 250 µg/mL | > 250 µg/mL | > 250 µg/mL | MIC (Escherichia coli [3]): > 250 µg/mL; MIC (Staphylococcus aureus [5]): > 250 µg/mL; MIC (Providencia rettgeri [11]): 250 µg/mL; MIC (Enterobacter cloacae [22]): > 250 µg/mL; MIC (Escherichia coli [23]): > 250 µg/mL; MIC (Pseudomonas aeruginosa [24]): > 250 µg/mL; MIC (Pseudomonas aeruginosa [25]): > 250 µg/mL; MIC (Providencia stuartii [26]): > 250 µg/mL; MIC (Escherichia coli [27]): > 250 µg/mL; MIC (Staphylococcus aureus [28]): > 250 µg/mL; MIC (Enterobacter cloacae [29]): > 250 µg/mL; MIC (Pseudomonas aeruginosa [30]): > 250 µg/mL; MIC (Klebsiella pneumoniae): > 250 µg/mL; MIC (Pseudomonas aeruginosa [31]): > 250 µg/mL; MIC (Escherichia coli [32]): > 250 µg/mL; MIC (Providencia rettgeri [33]): > 250 µg/mL |
| 2-{4,6-Diamino-3-[3-amino-6-(1-amino-ethyl)-tetrahydro-pyran-2-yloxy]-2-hydroxy-cyclohexyloxy}-5-methyl-4-methylamino-tetrahydro-pyran-3,5-diol; compound with 6-(2-carboxy-2-phenyl-acetylamino)-3,3-dimethyl-7-oxo-4-thia-1-aza-bicyclo[3.2.0]heptane-2-carbo | 250 µg/mL | 16 µg/mL | 250 µg/mL | > 250 µg/mL | > 250 µg/mL | 16 µg/mL | > 250 µg/mL | 250 µg/mL | > 250 µg/mL | > 250 µg/mL | > 250 µg/mL | > 250 µg/mL | > 250 µg/mL | > 250 µg/mL | > 250 µg/mL | > 250 µg/mL | > 250 µg/mL | > 250 µg/mL | > 250 µg/mL | 250 µg/mL | MIC (Escherichia coli [34]): 250 µg/mL; MIC (Providencia rettgeri [35]): 32 µg/mL; MIC (Enterobacter cloacae [22]): 250 µg/mL; MIC (Escherichia coli [23]): 250 µg/mL; MIC (Pseudomonas aeruginosa [24]): > 250 µg/mL; MIC (Pseudomonas aeruginosa [25]): > 250 µg/mL; MIC (Providencia stuartii [26]): > 250 µg/mL; MIC (Escherichia coli [27]): > 250 µg/mL; MIC (Staphylococcus aureus [28]): > 250 µg/mL; MIC (Staphylococcus aureus [36]): 32 µg/mL; MIC (Enterobacter cloacae [29]): > 250 µg/mL; MIC (Pseudomonas aeruginosa [30]): > 250 µg/mL; MIC (Klebsiella pneumoniae): 125 µg/mL; MIC (Pseudomonas aeruginosa [31]): > 250 µg/mL; MIC (Escherichia coli [32]): > 250 µg/mL; MIC (Providencia rettgeri [33]): > 250 µg/mL |

— ChEMBL document CHEMBL1123524, “Aminoglycoside antibiotics. 6. Chemical reactions of aminoglycosides with disodium carbenicillin” (1986)
